Patent US4100346A, “Certain 7(o-amino-methyl- or methylaminomethylphenyl- or cyclohexadienyl- or thienylacetamide)-3[1-carboxymethyl-(or ethyl- or propyl-)-tetrazol-5-ylthiomethyl]-3-cephem-4-carboxylic acids” (Bristol-Myers Company, priority 1976, dated 1978)
Converted amounts (≈) assume the structure as drawn. Read-outs that look alike come from different tables or passages of the source.

How the values were obtained:
[1] = tested on: Clostridium sp.; assay: microbe, parasite or virus in culture; type: cell-based; conditions: read-out: Minimum inhibitory concentration
Method: Antibiotic spectrum. […] Procedures were as follows:
c. Obligate anaerobes. The assay was performed on solid medium, consisting of Brain Heart Infusion Broth (BBL) supplemented with 5% defibrinated sheep blood and 1% Ionagar (Colab).

[2] = tested on: Proteus rettgeri; assay: Growth inhibitory activity, antibiotic dilution technique
[3] = tested on: Klebsiella pneumoniae; assay: Minimum growth inhibitory and bactericidal concentrations for Enterobacteriaceae; type: cell-based; conditions: for MBC: read-out: MBC, minimum bactericidal concentration; for MIC: read-out: MIC, Minimum growth inhibitory concentration
Source text: (§1) Miscellaneous. Methods for determining bactericidal activity and susceptibility to cell-free β-lactamase were those previously used; Leitner et al., BL-S640, A Cephalosporin With a Broad Spectrum of Antibacterial Activity: Properties in vitro, Antimicrob. Agents Chemother. 7:298-305 (1975).
(§2) *MIC, Minimum growth inhibitory concentration; MBC, minimum bactericidal
(§3) concentration; expressed as micrograms per milliliter. The inoculum was […]

[4] = tested on: Proteus rettgeri; assay: as above; type: cell-based; conditions: Providencia rettgeri, inoculum 10^4 cells; for MBC: read-out: MBC, minimum bactericidal concentration; for MIC: read-out: MIC, Minimum growth inhibitory concentration
Source text: as §1, §2, §3

[5] = tested on: Proteus vulgaris; assay: as above; type: cell-based; conditions: Proteus vulgaris, inoculum 10^4 cells; for MBC: read-out: MBC, minimum bactericidal concentration; for MIC: read-out: MIC, Minimum growth inhibitory concentration
Source text: as §1, §2, §3

[6] = tested on: Escherichia coli; assay: as above; type: cell-based; conditions: for MBC: read-out: MBC, minimum bactericidal concentration; for MIC: read-out: MIC, Minimum growth inhibitory concentration
Source text: as §1, §2, §3

[7] = tested on: Enterobacter aerogenes; assay: as above; type: cell-based; conditions: Klebsiella aerogenes, inoculum 10^4 cells; for MBC: read-out: MBC, minimum bactericidal concentration; for MIC: read-out: MIC, Minimum growth inhibitory concentration
Source text: as §1, §2, §3

[8] = tested on: Proteus mirabilis; assay: as above; type: cell-based; conditions: for MBC: read-out: MBC, minimum bactericidal concentration; for MIC: read-out: MIC, Minimum growth inhibitory concentration
Source text: as §1, §2, §3

[9] = tested on: Enterobacter cloacae; assay: as above; type: cell-based; conditions: for MBC: read-out: MBC, minimum bactericidal concentration; for MIC: read-out: MIC, Minimum growth inhibitory concentration
Source text: as §1, §2, §3

[10] = tested on: Escherichia coli; assay: Effect of inoculum size on susceptibility of Enterobacteriaceae
[11] = tested on: Pasteurella multocida; assay: Growth inhibitory activity, antibiotic dilution technique; conditions: read-out: Minimum inhibitory concentration
[12] = tested on: Listeria monocytogenes; assay: as above; conditions: read-out: Minimum inhibitory concentration
[13] = tested on: Proteus mirabilis; assay: Effect of inoculum size on susceptibility of Enterobacteriaceae
[14] = target: staphylococcal β-lactamase, Staphylococcus aureus A9606 (Staphylococcus aureus, UniProt P00807); assay: Hydrolysis by β-lactamase in cell-free extracts; type: biochemical; conditions: cell-free extract
Method: as §1
Susceptibility to β-lactamase. Susceptibility to enzymic hydrolysis was assessed by determining relative rates of hydrolysis by cell-free preparations of various β-lactamases (Table 6). BL-S786 was slightly to markedly less susceptible than the other cephalosporins to hydrolysis by β-lactamases of Type Ia, Ib, IIIa and IVa. All cephalosporins were poor substrates for Type IIa and staphylococcal β-lactamases. The four cephalosporins were hydrolyzed at similar rates by the Type IVb enzyme.

[15] = tested on: Citrobacter sp.; assay: Growth inhibitory activity, antibiotic dilution technique
[16] = Klebsiella pneumoniae strain 1, inoculum 10^4 cells
[17] = Klebsiella pneumoniae strain 2, inoculum 10^4 cells
[18] = Klebsiella pneumoniae strain 3, inoculum 10^4 cells
[19] = Klebsiella pneumoniae strain 4, inoculum 10^4 cells
[20] = Klebsiella pneumoniae strain 5, inoculum 10^4 cells
[21] = Klebsiella pneumoniae strain 6, inoculum 10^4 cells
[22] = Escherichia coli strain 1, inoculum 10^4 cells
[23] = Escherichia coli strain 2, inoculum 10^4 cells
[24] = Escherichia coli strain 3, inoculum 10^4 cells
[25] = Escherichia coli strain 4, inoculum 10^4 cells
[26] = Escherichia coli strain 5, inoculum 10^4 cells
[27] = Escherichia coli strain 6, inoculum 10^4 cells
[28] = Enterobacter aerogenes strain 1
[29] = Enterobacter aerogenes strain 2
[30] = Enterobacter aerogenes strain 3
[31] = Proteus mirabilis strain 1, inoculum 10^4 cells
[32] = Proteus mirabilis strain 2, inoculum 10^4 cells
[33] = Proteus mirabilis strain 3, inoculum 10^4 cells
[34] = Proteus mirabilis strain 4, inoculum 10^4 cells
[35] = Proteus mirabilis strain 5, inoculum 10^4 cells
[36] = Enterobacter cloacae strain 3, inoculum 10^4 cells
[37] = Enterobacter cloacae strain 4, inoculum 10^4 cells
[38] = Enterobacter cloacae strain 8, inoculum 10^4 cells

Chain of staphylococcal β-lactamase, Staphylococcus aureus A9606 (P00807 25-281): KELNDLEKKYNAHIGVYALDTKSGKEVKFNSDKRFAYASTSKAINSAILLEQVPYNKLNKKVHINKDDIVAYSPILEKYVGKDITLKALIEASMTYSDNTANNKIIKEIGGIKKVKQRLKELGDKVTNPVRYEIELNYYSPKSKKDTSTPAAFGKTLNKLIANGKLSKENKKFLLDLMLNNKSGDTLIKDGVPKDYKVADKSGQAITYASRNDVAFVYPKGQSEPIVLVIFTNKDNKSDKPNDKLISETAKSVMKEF

`O=C(Cc1cccs1)N[C@@H]1C(=O)N2C(C(=O)[O-])=C(C[n+]3ccccc3)CS[C@H]12` [Cephaloridine] was tested, and the MIC [1] was 0.63 µg/mL (≈ 1.52 µM), the “percent of strains inhibited” value [2] was “negligible” and the MBC [3, 16] was 4 µg/mL (≈ 9.63 µM). The MIC [3, 16] was 2 µg/mL (≈ 4.81 µM), the MBC [3, 17] was 4 µg/mL (≈ 9.63 µM) and the MIC [3, 17] was 4 µg/mL (≈ 9.63 µM). For the same compound, the MBC [3, 18] was 2 µg/mL (≈ 4.81 µM), the MIC [3, 18] was 2 µg/mL (≈ 4.81 µM) and the MBC [3, 19] was 4 µg/mL (≈ 9.63 µM). The MIC [3, 19] was 4 µg/mL (≈ 9.63 µM), the MBC [3, 20] was 8 µg/mL (≈ 19.3 µM) and the MIC [3, 20] was 8 µg/mL (≈ 19.3 µM). The MBC [3, 21] was 2 µg/mL (≈ 4.81 µM), the MIC [3, 21] was 2 µg/mL (≈ 4.81 µM) and the MBC ([4]; Proteus rettgeri strain 2) was 0.5 µg/mL (≈ 1.2 µM). The MIC ([4]; Proteus rettgeri strain 2) was 0.5 µg/mL (≈ 1.2 µM), the MBC ([4]; Proteus rettgeri strain 3) was > 250 µg/mL and the MIC ([4]; Proteus rettgeri strain 3) was 32 µg/mL (≈ 77 µM). The MBC ([5]; Proteus vulgaris strain 1) was 8 µg/mL (≈ 19.3 µM), the MIC ([5]; Proteus vulgaris strain 1) was 8 µg/mL (≈ 19.3 µM) and the MBC ([5]; Proteus vulgaris strain 2) was 16 µg/mL (≈ 38.5 µM). The MIC ([5]; Proteus vulgaris strain 2) was 8 µg/mL (≈ 19.3 µM), the MBC ([5]; Proteus vulgaris strain 4) was 16 µg/mL (≈ 38.5 µM) and the MIC ([5]; Proteus vulgaris strain 4) was 8 µg/mL (≈ 19.3 µM). It also gave an MBC [6, 22] of 4 µg/mL (≈ 9.63 µM), an MIC [6, 22] of 4 µg/mL (≈ 9.63 µM) and an MBC [6, 23] of 16 µg/mL (≈ 38.5 µM). For the same compound, the MIC [6, 23] was 16 µg/mL (≈ 38.5 µM), the MBC [6, 24] was 2 µg/mL (≈ 4.81 µM) and the MIC [6, 24] was 2 µg/mL (≈ 4.81 µM). For the same compound, the MBC [6, 25] was 4 µg/mL (≈ 9.63 µM), the MIC [6, 25] was 4 µg/mL (≈ 9.63 µM) and the MBC [6, 26] was 4 µg/mL (≈ 9.63 µM). The MIC [6, 26] was 4 µg/mL (≈ 9.63 µM), the MBC [6, 27] was 8 µg/mL (≈ 19.3 µM) and the MIC [6, 27] was 4 µg/mL (≈ 9.63 µM). For the same compound, the MBC [7, 28] was > 250 µg/mL, the MIC [7, 28] was > 250 µg/mL and the MBC [7, 29] was > 250 µg/mL. For the same compound, the MIC [7, 29] was 250 µg/mL (≈ 602 µM), the MBC [7, 30] was 250 µg/mL (≈ 602 µM) and the MIC [7, 30] was 250 µg/mL (≈ 602 µM). It also gave an MBC [8, 31] of 16 µg/mL (≈ 38.5 µM), an MIC [8, 31] of 8 µg/mL (≈ 19.3 µM) and an MBC [8, 32] of 8 µg/mL (≈ 19.3 µM). The MIC [8, 32] was 8 µg/mL (≈ 19.3 µM), the MBC [8, 33] was 8 µg/mL (≈ 19.3 µM) and the MIC [8, 33] was 8 µg/mL (≈ 19.3 µM). For the same compound, the MBC [8, 34] was 8 µg/mL (≈ 19.3 µM), the MIC [8, 34] was 8 µg/mL (≈ 19.3 µM) and the MBC [8, 35] was 8 µg/mL (≈ 19.3 µM). For the same compound, the MIC [8, 35] was 4 µg/mL (≈ 9.63 µM), the MBC [9, 36] was 16 µg/mL (≈ 38.5 µM) and the MIC [9, 36] was 16 µg/mL (≈ 38.5 µM). For the same compound, the MBC [9, 37] was > 250 µg/mL, the MIC [9, 37] was > 250 µg/mL and the MBC [9, 38] was > 250 µg/mL. For the same compound, the MIC [9, 38] was > 250 µg/mL, the MIC ([10]; read-out: Minimum Inhibitory Concentration, Escherichia coli strain 1, A, Inoculum of 10^2 organisms) was 2 µg/mL (≈ 4.81 µM) and the MIC ([10]; read-out: Minimum Inhibitory Concentration, Escherichia coli strain 1, B, Inoculum of 10^6 organisms) was 8 µg/mL (≈ 19.3 µM). For the same compound, the MIC ([10]; read-out: Minimum Inhibitory Concentration, Escherichia coli strain 2, A, Inoculum of 10^2 organisms) was 4 µg/mL (≈ 9.63 µM), the MIC ([10]; read-out: Minimum Inhibitory Concentration, Escherichia coli strain 2, B, Inoculum of 10^6 organisms) was 16 µg/mL (≈ 38.5 µM) and the MIC ([10]; read-out: Minimum Inhibitory Concentration, Escherichia coli strain 3, A, Inoculum of 10^2 organisms) was 2 µg/mL (≈ 4.81 µM). It also gave an MIC ([10]; read-out: Minimum Inhibitory Concentration, Escherichia coli strain 3, B, Inoculum of 10^6 organisms) of 4 µg/mL (≈ 9.63 µM), an MIC ([10]; read-out: Minimum Inhibitory Concentration, Escherichia coli strain 4, A, Inoculum of 10^2 organisms) of 2 µg/mL (≈ 4.81 µM) and an MIC ([10]; read-out: Minimum Inhibitory Concentration, Escherichia coli strain 4, B, Inoculum of 10^6 organisms) of 4 µg/mL (≈ 9.63 µM). For the same compound, the MIC ([10]; read-out: Minimum Inhibitory Concentration, Escherichia coli strain 5, A, Inoculum of 10^2 organisms) was 4 µg/mL (≈ 9.63 µM), the MIC ([10]; read-out: Minimum Inhibitory Concentration, Escherichia coli strain 5, B, Inoculum of 10^6 organisms) was 8 µg/mL (≈ 19.3 µM) and the MIC ([10]; read-out: Minimum Inhibitory Concentration, Escherichia coli strain 6, A, Inoculum of 10^2 organisms) was 2 µg/mL (≈ 4.81 µM). It also gave an MIC ([10]; read-out: Minimum Inhibitory Concentration, Escherichia coli strain 6, B, Inoculum of 10^6 organisms) of 8 µg/mL (≈ 19.3 µM), an MIC ([10]; read-out: Minimum Inhibitory Concentration, Escherichia coli strain 7, A, Inoculum of 10^2 organisms) of 2 µg/mL (≈ 4.81 µM) and an MIC ([10]; read-out: Minimum Inhibitory Concentration, Escherichia coli strain 7, B, Inoculum of 10^6 organisms) of 4 µg/mL (≈ 9.63 µM). The MIC [11] was 0.5 µg/mL (≈ 1.2 µM), the MIC [12] was 0.91 µg/mL (≈ 2.19 µM) and the MIC ([13]; read-out: Minimum Inhibitory Concentration, Proteus mirabilis strain 1, A, Inoculum of 10^2 organisms) was 4 µg/mL (≈ 9.63 µM). It also gave an MIC ([13]; read-out: Minimum Inhibitory Concentration, Proteus mirabilis strain 1, B, Inoculum of 10^6 organisms) of 16 µg/mL (≈ 38.5 µM), an MIC ([13]; read-out: Minimum Inhibitory Concentration, Proteus mirabilis strain 2, A, Inoculum of 10^2 organisms) of 8 µg/mL (≈ 19.3 µM) and an MIC ([13]; read-out: Minimum Inhibitory Concentration, Proteus mirabilis strain 2, B, Inoculum of 10^6 organisms) of 16 µg/mL (≈ 38.5 µM). It also gave an MIC ([13]; read-out: Minimum Inhibitory Concentration, Proteus mirabilis strain 3, A, Inoculum of 10^2 organisms) of 8 µg/mL (≈ 19.3 µM), an MIC ([13]; read-out: Minimum Inhibitory Concentration, Proteus mirabilis strain 3, B, Inoculum of 10^6 organisms) of 32 µg/mL (≈ 77 µM) and an MIC ([13]; read-out: Minimum Inhibitory Concentration, Proteus mirabilis strain 4, A, Inoculum of 10^2 organisms) of 4 µg/mL (≈ 9.63 µM). The MIC ([13]; read-out: Minimum Inhibitory Concentration, Proteus mirabilis strain 4, B, Inoculum of 10^6 organisms) was 32 µg/mL (≈ 77 µM), the MIC ([13]; read-out: Minimum Inhibitory Concentration, Proteus mirabilis strain 5, A, Inoculum of 10^2 organisms) was 4 µg/mL (≈ 9.63 µM) and the MIC ([13]; read-out: Minimum Inhibitory Concentration, Proteus mirabilis strain 5, B, Inoculum of 10^6 organisms) was 16 µg/mL (≈ 38.5 µM). For the same compound, the “Relative Rate of Hydrolysis (benzylpenicillin = 100)” value [14] was < 0.5, the MIC ([15]; read-out: Minimum inhibitory concentration, Citrobacter sp., 1 strain) was > 125 µg/mL and the MIC ([15]; read-out: Minimum inhibitory concentration, Citrobacter sp., 4 strains, geometric mean when applicable) was > 125 µg/mL.
